Data: patent US7943632B2, “High potency dopaminergic treatment of neurological impairment associated with brain injury” (NeuroHealing Pharmaceuticals, Inc., priority 2003, dated 2011)

Key:
[1] = test system: patients of post-traumatic brain injury vegetative state (VS) and minimally conscious state (MCS); conditions: in vivo
[2] = cited from earlier work
[3] = test system: patients of post-traumatic brain injury vegetative state (VS) and minimally conscious state (MCS); assay: Apomorphine open label study, Disability Rating Scale; assay type: in vivo, human
[4] = test system: patients of post-traumatic brain injury vegetative state (VS) and minimally conscious state (MCS); assay: Apomorphine open label study, safety observations; conditions: Patient 02; approximately 4 months from the accident, dosing interrupted Day 47
[5] = test system: patients of post-traumatic brain injury vegetative state (VS) and minimally conscious state (MCS); assay: Apomorphine open label study, efficacy observations; assay type: in vivo, human
Experimental: The patients received the maximum tolerated dose, 12 to 16 hours per day, for up to 84 days (or shorter or longer as indicated). If the patient developed an adverse event, the dose was reduced or eliminated, according to the opinion of the attending physician. To prevent side effects from dopaminergic stimulation (such as nausea), domperidone was administered starting 24-72 hours (h) prior to initiation of the drug therapy.

[6] = test system: patients of post-traumatic brain injury vegetative state (VS) and minimally conscious state (MCS); assay: Apomorphine open label study, Coma/Near Coma (CNC) Scale; assay type: in vivo, human
[7] = cited from earlier work; remark: listed apart in the source
[8] = test system: D2-like dopamine receptors; conditions: cited from earlier work
[9] = test system: patients of post-traumatic brain injury vegetative state (VS) and minimally conscious state (MCS); assay: Apomorphine open label study, Extended Glasgow Outcome Scale (GOS-E); assay type: in vivo, human
[10] = test system: Patient 01, traumatic brain injury (TBI); assay: Prior drug treatment in clinical history of Patient 01; assay type: in vivo, human; conditions: 15 mg/day for 12 days, before apomorphine study
[11] = Patient 01, Day 7 of s.c. apomorphine
[12] = Patient 01, Day 180, study termination
[13] = Patient 02, Day 7 of s.c. apomorphine
[14] = Patient 03, Day 7 of s.c. apomorphine
[15] = Patient 03, Day 180, treatment discontinued Day 84

## CN1CCc2cccc3c2[C@H]1Cc1ccc(O)c(O)c1-3 [apomorphine, (R)-5,6,6a,7-tetrahydro-6-methyl-4H-dibenzo[de,g]quinolin-10,11-diol]
[1]
  Adverse event: seizure
  Adverse events: agitation and fever
  Dyskinesias and hallucinations after dose reduction: disappeared
  ECG and clinical labs: no abnormal values
[1]; sc
  Tolerability of dose escalation: well tolerated
[2]; from subcutaneous tissues
  Absorption and clearance: rapidly and completely absorbed from subcutaneous tissues and is rapidly cleared
[2]; parenterally administered
  Absorption: rapidly and completely absorbed
[3]; Patient 01, Day 0 (baseline)
  DRS: 21
[3]; [11]
  DRS: 13
[3]; Patient 01, Day 14
  DRS: 13
[3]; Patient 01, Day 21
  DRS: 12.5
[3]; Patient 01, Day 28
  DRS: 12.5
[3]; Patient 01, Day 42
  DRS: 12
[3]; Patient 01, Day 56
  DRS: 10.5
[3]; Patient 01, Day 70
  DRS: 10.5
[3]; Patient 01, Day 84
  DRS: 10
[3]; [12]
  DRS: 15
[3]; Patient 02, Day 0 (baseline)
  DRS: 26
[3]; [13]
  DRS: 24
[3]; Patient 02, Day 14
  DRS: 19
[3]; Patient 02, Day 21
  DRS: 22
[3]; Patient 02, Day 28
  DRS: 22
[3]; Patient 03, Day 0 (baseline)
  DRS: 23
[3]; [14]
  DRS: 22
[3]; Patient 03, Day 14
  DRS: 22
[3]; Patient 03, Day 21
  DRS: 22
[3]; Patient 03, Day 28
  DRS: 22
[3]; Patient 03, Day 42
  DRS: 22
[3]; Patient 03, Day 56
  DRS: 22
[3]; Patient 03, Day 70
  DRS: 22
[3]; Patient 03, Day 84
  DRS: 21
[3]; [15]
  DRS: 12
[4]
  Patient outcome: died
[5]; Patient 01, Day 1, hours after initial dosing, 2 mg/h
  Efficacy observation: moved right thumb to command
[5]; Patient 01, Day 2, 4 mg/h
  Efficacy observation: moved limbs on command and answered yes/no questions
[5]; Patient 01, Day 3, 6 mg/h
  Efficacy observation: Spoke by phone with sibling and named four friends in their room
[5]; Patient 01, Day 4, 8 mg/h
  Efficacy observation: named objects and associated them with their function
[5]; Patient 01, Day 5, 8 mg/h
  Efficacy observation: oriented to physician's last name and name of the institution
[5]; Patient 01, Day 18
  Effect of pump remaining off for two hours: decrease in their awareness status
  Time to regain “on” status after reconnection of the pump: ≤ 15 min
[5]; Patient 01, Day 84
  Effect of attempt to discontinue the treatment: regressed to an “off” state
[5]; Patient 02
  Day of trial on which patient started to follow simple commands: 9
[5]; Patient 02, first two weeks of drug administration, maintained until the bleeding event
  Efficacy observation: improvement in the patient's consciousness state
[5]; Patient 03, Day 2
  Efficacy observation: started to vocalize words
[5]; Patient 03, Day 62
  Efficacy observation: started to clearly respond to commands, recognize family members, respond to their name and respond to their age
[5]; Patient 03, Day 84
  Effect of first attempt to discontinue drug: maintained their motor and cognitive improvements
[5]; Patients 01, 02 and 03 after traumatic brain injury
  Overall efficacy on altered consciousness state: effective at improving the altered consciousness state
[6]; Patient 01, Day 0 (baseline)
  CNC: 20
[6]; [11]
  CNC: 2
[6]; Patient 01, Day 14
  CNC: 0
[6]; Patient 01, Day 21
  CNC: 0
[6]; Patient 01, Day 28
  CNC: 0
[6]; Patient 01, Day 42
  CNC: 0
[6]; Patient 01, Day 56
  CNC: 0
[6]; Patient 01, Day 70
  CNC: 0
[6]; Patient 01, Day 84
  CNC: 0
[6]; [12]
  CNC: 0
[6]; Patient 02, Day 0 (baseline)
  CNC: 36
[6]; Patient 02, Day 0 (baseline), listed as Apomorphine
  CNC: 37
[6]; [13]
  CNC: 33
[6]; Patient 02, Day 14
  CNC: 24
[6]; Patient 02, Day 21
  CNC: 24
[6]; Patient 02, Day 28
  CNC: 24
[6]; Patient 02, Day 42
  CNC: 26
[6]; Patient 03, Day 0 (baseline)
  CNC: 33
[6]; [14]
  CNC: 22
[6]; Patient 03, Day 14
  CNC: 18
[6]; Patient 03, Day 21
  CNC: 12
[6]; Patient 03, Day 28
  CNC: 12
[6]; Patient 03, Day 42
  CNC: 16
[6]; Patient 03, Day 56
  CNC: 16
[6]; Patient 03, Day 70
  CNC: 12
[6]; Patient 03, Day 84
  CNC: 8
[6]; [15]
  CNC: 0
[7]; compared with other dopaminergic agents
  Incidence of psychological effects: lower incidence of psychological effects
[7]; subcutaneous administration at a concentration of 10 mg/ml
  Injection site reaction: nodule formation (panniculitis) may occur
[8]
  Affinity for D2-like dopamine receptors: particularly high affinity
[9]; Patient 01, Day 7
  GOS-E: 3
[9]; Patient 01, Day 14
  GOS-E: 3
[9]; Patient 01, Day 84
  GOS-E: 3
[9]; [12]
  GOS-E: 3
[9]; Patient 03, Day 84
  GOS-E: 3
[9]; Patient 03, baseline
  GOS-E: 2

## COC(=O)C(c1ccccc1)C1CCCCN1 (stereo not drawn) [methylphenidate]
[10]
  Response to treatment: no response to treatment
